Assay results: paper PMC3487895, “Artepillin C, a Major Ingredient of Brazilian Propolis, Induces a Pungent Taste by Activating TRPA1 Channels” (PLoS ONE, 2012)

Assays:
[1] = target: T1, human transient receptor potential ankyrin 1 (hTRPA1) (Homo sapiens, UniProt O75762); assay: calcium influx (FLIPR Calcium […] plate reader and Fura-2 imaging) in hTRPA1-expressing Flp-In […] cells; blocked by HC-030031; type: cell-based
T1 construct: gene TRPA1; entire coding region (NM_007332.2)

[2] = target: T1, human transient receptor potential ankyrin 1 (hTRPA1); assay: calcium influx (FLIPR Calcium […] plate reader and Fura-2 imaging) in hTRPA1-expressing Flp-In […] cells; blocked by HC-030031, absent in parental cells; type: cell-based

T1 sequence (O75762 whole entry): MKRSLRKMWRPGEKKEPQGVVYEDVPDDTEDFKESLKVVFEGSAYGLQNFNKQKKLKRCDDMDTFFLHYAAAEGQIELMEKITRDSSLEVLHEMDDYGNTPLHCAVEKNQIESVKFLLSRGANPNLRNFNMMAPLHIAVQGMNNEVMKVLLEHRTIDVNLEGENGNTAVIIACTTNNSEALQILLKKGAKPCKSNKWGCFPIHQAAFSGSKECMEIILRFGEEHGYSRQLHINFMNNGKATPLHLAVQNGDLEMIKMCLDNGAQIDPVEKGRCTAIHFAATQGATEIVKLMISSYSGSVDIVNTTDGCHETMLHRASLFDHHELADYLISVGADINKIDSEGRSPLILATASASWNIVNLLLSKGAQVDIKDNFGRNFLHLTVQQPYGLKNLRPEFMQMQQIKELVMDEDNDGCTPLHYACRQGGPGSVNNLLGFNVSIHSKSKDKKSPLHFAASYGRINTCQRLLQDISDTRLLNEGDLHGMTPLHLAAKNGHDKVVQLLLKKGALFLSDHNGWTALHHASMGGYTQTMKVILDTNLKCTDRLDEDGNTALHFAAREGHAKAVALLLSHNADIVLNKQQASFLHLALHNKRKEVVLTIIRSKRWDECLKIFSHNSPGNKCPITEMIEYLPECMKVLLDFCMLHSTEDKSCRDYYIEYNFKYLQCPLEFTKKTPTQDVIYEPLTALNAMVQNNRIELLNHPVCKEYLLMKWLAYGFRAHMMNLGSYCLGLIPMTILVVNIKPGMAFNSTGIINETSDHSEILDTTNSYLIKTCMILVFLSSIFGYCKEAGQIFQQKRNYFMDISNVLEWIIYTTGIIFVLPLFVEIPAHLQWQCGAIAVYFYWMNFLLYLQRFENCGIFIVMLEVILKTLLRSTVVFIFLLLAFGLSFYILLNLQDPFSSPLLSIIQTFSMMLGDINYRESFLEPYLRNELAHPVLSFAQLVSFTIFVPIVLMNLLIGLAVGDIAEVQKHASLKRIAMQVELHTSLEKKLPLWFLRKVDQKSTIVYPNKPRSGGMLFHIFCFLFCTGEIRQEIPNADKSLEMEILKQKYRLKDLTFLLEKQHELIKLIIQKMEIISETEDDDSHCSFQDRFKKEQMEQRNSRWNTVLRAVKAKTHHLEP

Compound | EC50 [1] [µM] | EC50 [2] [µM]
CC(C)=CCc1cc(/C=C/C(=O)O)ccc1OC(=O)CCc1ccccc1 [baccharin, (E)-3-prenyl-4-(2,3-dihydrocinnamoyloxy) cinnamic acid] | 15.5 | 
CC(C)=CCc1cc(/C=C/C(=O)O)cc(CC=C(C)C)c1O [artepillin C, 3,5-diprenyl-4-hydroxycinnamic acid] |  | 1.8
